Values quoted from earlier work, collected in PMC3076957 (Chemico-biological interactions, 2008).

Legend:
[1] = molecular target: T1, AKR1C3 (Homo sapiens, UniProt P42330); test: enzyme inhibition assay; conditions: read-out: IC50 values (μM) / AKR1C3
T1 sequence (P42330 1-323): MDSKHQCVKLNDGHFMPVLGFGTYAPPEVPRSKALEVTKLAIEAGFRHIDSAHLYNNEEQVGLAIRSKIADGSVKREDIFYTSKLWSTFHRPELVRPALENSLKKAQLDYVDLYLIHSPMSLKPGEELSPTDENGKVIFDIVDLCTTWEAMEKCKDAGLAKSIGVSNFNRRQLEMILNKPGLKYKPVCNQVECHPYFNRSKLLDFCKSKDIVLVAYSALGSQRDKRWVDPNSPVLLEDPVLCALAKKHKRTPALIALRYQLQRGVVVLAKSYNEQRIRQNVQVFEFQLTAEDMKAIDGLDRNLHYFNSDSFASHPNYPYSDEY

[2] = molecular target: T1, AKR1C3; test: inhibition of androstenedione reduction, Lineweaver-Burk; assay type: biochemical
[3] = molecular target: T1, AKR1C3; test: inhibition of […],10-phenanthrenequinone reduction; assay type: biochemical; conditions: read-out: IC50 values (μM) / AKR1C3
[4] = molecular target: AKR1C2 (Homo sapiens, UniProt P52895); conditions: read-out: IC50 values (μM) / AKR1C2
Sequence of AKR1C2 (P52895 whole entry): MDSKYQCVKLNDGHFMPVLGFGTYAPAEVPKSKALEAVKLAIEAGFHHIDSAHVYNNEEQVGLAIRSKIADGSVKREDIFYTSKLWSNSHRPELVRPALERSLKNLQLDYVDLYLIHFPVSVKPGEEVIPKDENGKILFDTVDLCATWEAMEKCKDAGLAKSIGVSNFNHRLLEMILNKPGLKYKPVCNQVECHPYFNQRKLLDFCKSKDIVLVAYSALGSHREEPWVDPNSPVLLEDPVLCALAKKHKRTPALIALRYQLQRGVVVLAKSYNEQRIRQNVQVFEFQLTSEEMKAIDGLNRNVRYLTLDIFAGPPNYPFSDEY

O=C(O)c1ccc(C(=O)c2ccccc2)cc1 [4-Benzoyl-benzoic acid]
Ki [1]: 1.9 µM

O=C(O)c1ccc(Nc2ccc([N+](=O)[O-])cc2[N+](=O)[O-])cc1 [4-Carboxy-2′,4′-dinitrodiphenylamine]
Ki [1]: 0.38 µM

COc1ccc2c(c1)c(CCNC(C)=O)cn2C(=O)c1ccc(Cl)cc1 [CBM, N-(4-chlorobenzoyl)-melatonin]
Ki [2]: 6000 nM

Cc1ccc(Cl)c(Nc2ccccc2C(=O)O)c1Cl [Meclofenamic Acid]
IC50 [3]: 0.7 µM

COc1ccc2cc([C@H](C)C(=O)O)ccc2c1 [Naproxen]
IC50 [4]: 1.2 µM
